Laboratory results reported in patent publication USRE48461E1, “Modulation of androgen receptor expression” (Ionis Pharmaceuticals, Inc., priority 2012, dated 2021).

Tests used:
Format in all cases: cell-based, human
[1] = test system: LNCaP cells; assay: LNCaP cell proliferation, ASO in combination with MDV3100 (Example 20); settings: for Proliferation (% untreated control) in LNCaP without MDV-3100: 5 days
Description: LNCaP cells were plated at 1,000 cells per well. […] ISIS 549148 was included as a negative control. […] After a treatment period of 5 days, the proliferative capacity of the cancer cells was measured with CellTiter 96® AQueous One or CellTiter-Glo® Solution Cell Proliferation kit (Promega), following the manufacturer's instructions. […]

[2] = test system: 22RV1 cells; assay: 22RV1 cell proliferation, ASO in combination with MDV3100 (Example 22); settings: for Proliferation (% untreated control) in 22RV1 without MDV-3100: RNAiMAX, 3 days
Description: 22RV1 cells were plated at 2,000 cells per well in 5% CSS medium for 48 hours. […] ISIS 549148 was included as a negative control. […] After a treatment period of 3 days, the proliferative capacity of the cancer cells was measured with CellTiter 96® AQueous One Solution Cell Proliferation kit (Promega), following the manufacturer's instructions. Results are presented in Tables 58-62 as percent inhibition of proliferation, relative to non-treated cells.

[3] = test system: TMPRSS2 mRNA; assay: TMPRSS2 expression in C4-2 cells; settings: C4-2 cells, CSS + DHT medium, 48 hrs
Description: Cells were plated at 1,000 cells per well. […] After an incubation period of 48 hrs, RNA levels of AR, PSA and TMPRSS2 were measured.
Cells were plated at 2,000 cells per well and cultured in CSS media with 1 nM DHT. […] After an incubation period of 48 hrs, RNA levels of AR, PSA and TMPRSS2 were measured.

**Q.** How did the “Proliferation (% untreated control) in LNCaP with 0.08 μM MDV-3100” value ([1]; ASO dose 0.04 μM + 0.08 μM MDV-3100) turn out when “GGCTACTACGCCGTCA (3-10-3 (S)-cEt gapmer, chemistry not fully specified) [ISIS 549148, reference compound]” was run?
**A.** Its value is 101 % untreated control.

**Q.** What about the “Proliferation (% untreated control) in LNCaP with 0.4 μM MDV-3100” value ([1]; ASO dose 0.04 μM + 0.4 μM MDV-3100) of the same sequence?
**A.** Its value is 57 % untreated control.

**Q.** And the “Proliferation (% untreated control) in LNCaP with 2.0 μM MDV-3100” value ([1]; ASO dose 0.04 μM + 2.0 μM MDV-3100)?
**A.** The value was 42 % untreated control.

**Q.** And the “Proliferation (% untreated control) in LNCaP with […] MDV-3100” value ([1]; ASO dose 0.04 μM + […] MDV-3100)?
**A.** The value was 86 % untreated control.

**Q.** What about the “Proliferation (% untreated control) in LNCaP without MDV-3100” value ([1]; ASO dose 0.04 μM) of the same sequence?
**A.** Its value is 101 % untreated control.

**Q.** What about the “Proliferation (% untreated control) in LNCaP with 0.08 μM MDV-3100” value ([1]; ASO dose 0.08 μM + 0.08 μM MDV-3100) of the same sequence?
**A.** Its value is 93 % untreated control.

**Q.** What about the “Proliferation (% untreated control) in LNCaP with 0.4 μM MDV-3100” value ([1]; ASO dose 0.08 μM + 0.4 μM MDV-3100) of the same sequence?
**A.** Its value is 65 % untreated control.

**Q.** What about the “Proliferation (% untreated control) in LNCaP with 2.0 μM MDV-3100” value ([1]; ASO dose 0.08 μM + 2.0 μM MDV-3100) of the same sequence?
**A.** The value was 39 % untreated control.

**Q.** And the “Proliferation (% untreated control) in LNCaP with […] MDV-3100” value ([1]; ASO dose 0.08 μM + […] MDV-3100)?
**A.** Its value is 106 % untreated control.

**Q.** And the “Proliferation (% untreated control) in LNCaP without MDV-3100” value ([1]; ASO dose 0.08 μM)?
**A.** The value was 104 % untreated control.

**Q.** What about the “Proliferation (% untreated control) in LNCaP with 0.08 μM MDV-3100” value ([1]; ASO dose 0.2 μM + 0.08 μM MDV-3100) of the same sequence?
**A.** The value was 89 % untreated control.

**Q.** What about the “Proliferation (% untreated control) in LNCaP with 0.4 μM MDV-3100” value ([1]; ASO dose 0.2 μM + 0.4 μM MDV-3100) of the same sequence?
**A.** Its value is 50 % untreated control.

**Q.** What about the “Proliferation (% untreated control) in LNCaP with 2.0 μM MDV-3100” value ([1]; ASO dose 0.2 μM + 2.0 μM MDV-3100) of the same sequence?
**A.** The value was 41 % untreated control.

**Q.** What about the “Proliferation (% untreated control) in LNCaP with […] MDV-3100” value ([1]; ASO dose 0.2 μM + […] MDV-3100) of the same sequence?
**A.** The value was 83 % untreated control.

**Q.** What about the “Proliferation (% untreated control) in LNCaP without MDV-3100” value ([1]; ASO dose 0.2 μM) of the same sequence?
**A.** Its value is 91 % untreated control.

**Q.** What about the “Proliferation (% untreated control) in LNCaP with 0.08 μM MDV-3100” value ([1]; ASO dose 1.0 μM + 0.08 μM MDV-3100) of the same sequence?
**A.** The value was 90 % untreated control.

**Q.** What about the “Proliferation (% untreated control) in LNCaP with 0.4 μM MDV-3100” value ([1]; ASO dose 1.0 μM + 0.4 μM MDV-3100) of the same sequence?
**A.** The value was 48 % untreated control.

**Q.** What about the “Proliferation (% untreated control) in LNCaP with 2.0 μM MDV-3100” value ([1]; ASO dose 1.0 μM + 2.0 μM MDV-3100) of the same sequence?
**A.** Its value is 32 % untreated control.

**Q.** What about the “Proliferation (% untreated control) in LNCaP with […] MDV-3100” value ([1]; ASO dose 1.0 μM + […] MDV-3100) of the same sequence?
**A.** Its value is 59 % untreated control.

**Q.** What about the “Proliferation (% untreated control) in LNCaP without MDV-3100” value ([1]; ASO dose 1.0 μM) of the same sequence?
**A.** Its value is 82 % untreated control.

**Q.** And the “Proliferation (% untreated control) in 22RV1 cells with 0.04 μM MDV-3100” value ([2]; ASO dose 0.4 nM + 0.04 μM MDV-3100)?
**A.** Its value is 106 % untreated control.

**Q.** What about the “Proliferation (% untreated control) in 22RV1 cells with 0.2 μM MDV-3100” value ([2]; ASO dose 0.4 nM + 0.2 μM MDV-3100) of the same sequence?
**A.** Its value is 101 % untreated control.

**Q.** And the “Proliferation (% untreated control) in 22RV1 cells with 1.0 μM MDV-3100” value ([2]; ASO dose 0.4 nM + 1.0 μM MDV-3100)?
**A.** The value was 106 % untreated control.

**Q.** What about the “Proliferation (% untreated control) in 22RV1 cells with 5.0 μM MDV-3100” value ([2]; ASO dose 0.4 nM + 5.0 μM MDV-3100) of the same sequence?
**A.** The value was 96 % untreated control.

**Q.** What about the “Proliferation (% untreated control) in 22RV1 without MDV-3100” value ([2]; ASO dose 0.4 nM) of the same sequence?
**A.** Its value is 109 % untreated control.

**Q.** And the “Proliferation (% untreated control) in 22RV1 cells with 0.04 μM MDV-3100” value ([2]; ASO dose 1.34 nM + 0.04 μM MDV-3100)?
**A.** Its value is 106 % untreated control.

**Q.** And the “Proliferation (% untreated control) in 22RV1 cells with 0.2 μM MDV-3100” value ([2]; ASO dose 1.34 nM + 0.2 μM MDV-3100)?
**A.** The value was 115 % untreated control.

**Q.** And the “Proliferation (% untreated control) in 22RV1 cells with 1.0 μM MDV-3100” value ([2]; ASO dose 1.34 nM + 1.0 μM MDV-3100)?
**A.** Its value is 95 % untreated control.

**Q.** What about the “Proliferation (% untreated control) in 22RV1 cells with 5.0 μM MDV-3100” value ([2]; ASO dose 1.34 nM + 5.0 μM MDV-3100) of the same sequence?
**A.** The value was 102 % untreated control.

**Q.** What about the “Proliferation (% untreated control) in 22RV1 without MDV-3100” value ([2]; ASO dose 1.34 nM) of the same sequence?
**A.** The value was 109 % untreated control.

**Q.** What about the “Proliferation (% untreated control) in 22RV1 cells with 0.04 μM MDV-3100” value ([2]; ASO dose 4.0 nM + 0.04 μM MDV-3100) of the same sequence?
**A.** Its value is 100 % untreated control.

**Q.** What about the “Proliferation (% untreated control) in 22RV1 cells with 0.2 μM MDV-3100” value ([2]; ASO dose 4.0 nM + 0.2 μM MDV-3100) of the same sequence?
**A.** Its value is 110 % untreated control.

**Q.** What about the “Proliferation (% untreated control) in 22RV1 cells with 1.0 μM MDV-3100” value ([2]; ASO dose 4.0 nM + 1.0 μM MDV-3100) of the same sequence?
**A.** The value was 98 % untreated control.

**Q.** What about the “Proliferation (% untreated control) in 22RV1 cells with 5.0 μM MDV-3100” value ([2]; ASO dose 4.0 nM + 5.0 μM MDV-3100) of the same sequence?
**A.** The value was 98 % untreated control.

**Q.** And the “Proliferation (% untreated control) in 22RV1 without MDV-3100” value ([2]; ASO dose 4.0 nM)?
**A.** The value was 109 % untreated control.

**Q.** And the “Proliferation (% untreated control) in 22RV1 cells with 0.04 μM MDV-3100” value ([2]; ASO dose 13.4 nM + 0.04 μM MDV-3100)?
**A.** The value was 85 % untreated control.

**Q.** What about the “Proliferation (% untreated control) in 22RV1 cells with 0.2 μM MDV-3100” value ([2]; ASO dose 13.4 nM + 0.2 μM MDV-3100) of the same sequence?
**A.** The value was 96 % untreated control.

**Q.** What about the “Proliferation (% untreated control) in 22RV1 cells with 1.0 μM MDV-3100” value ([2]; ASO dose 13.4 nM + 1.0 μM MDV-3100) of the same sequence?
**A.** Its value is 82 % untreated control.

**Q.** What about the “Proliferation (% untreated control) in 22RV1 cells with 5.0 μM MDV-3100” value ([2]; ASO dose 13.4 nM + 5.0 μM MDV-3100) of the same sequence?
**A.** The value was 85 % untreated control.

**Q.** And the “Proliferation (% untreated control) in 22RV1 without MDV-3100” value ([2]; ASO dose 13.4 nM)?
**A.** The value was 99 % untreated control.

**Q.** And the “Percent inhibition of TMPRSS2 expression” value ([3]; 0.04 μM)?
**A.** Its value is 3%.

**Q.** And the “Percent inhibition of TMPRSS2 expression” value ([3]; 0.2 μM)?
**A.** Its value is 0%.

**Q.** And the “Percent inhibition of TMPRSS2 expression” value ([3]; 1 μM)?
**A.** Its value is 22%.
